Results from patent publication US10836769B2, “Substituted pyrrolizine compounds and uses thereof” (Gilead Sciences, Inc., priority 2018, dated 2020).
In brackets after ≈: the same amount, converted by molar mass. Where two headings read alike, the source gives them in different places.

How the values were obtained:
[1] = test system: HBV; assay: HBV DNA Quantification Assay; assay type: cell-based; conditions: HepG2 cell line overexpressing NTCP infected with HBV AD38 viral particles, HBV DNA in culture supernatant after 5 days, geometric mean of a minimum of four determinations, read-out: EC50
Description: A HepG2 cell line overexpressing the HBV virus attachment receptor sodium-taurocholate cotransporting polypeptide (NTCP) was grown to confluency in DMEM growth medium, Dulbecco's Modified Eagle Medium without sodium pyruvate (Life Technologies, Rockville, Md.) supplemented with 10% FBS (Thermo Scientific, Waltham, Md.), 1% penicillin/streptomycin (Life Technologies, Rockville, Md.) and 2 mM L-glutamine (Life Technologies, Rockville, Md.) in T175 flasks. Cells were infected with HBV AD38 viral particles (Texcell, Frederick, USA) at 4000 genome equivalents per cell. After allowing viral infection to take place for 4 days, the infected cells were harvested from the flasks by trypsinization, washed twice with OptiMEM (Life Technologies, Rockville, Md.) and re-suspended in DMEM containing 2% FBS and 1% DMSO at a density of 0.25E6 cells/ml. Infected cells were seeded on 384 well collagen coated plates (Greiner, Austria) at a density of 20,000 cells/well containing serially diluted compounds of the present disclosure or DMSO (0.5%) in a final volume of 80 μl. The assay plates were incubated for a period of 5 days and the antiviral activity of the test compounds were assayed by detecting the presence of HBV DNA in the culture supernatant using the QuantiGene™ 2.0 nucleic acid quantification kit (Affymetrix, Santa Clara, Calif.).
The culture supernatant was harvested and treated with lysis buffer containing Proteinase K (Affymetrix, Santa Clara, Calif.). The supernatant was incubated with HBV viral DNA specific probes (Affymetrix, Santa Clara, Calif.) for 30 minutes at 55° C. This was followed by addition of 0.2M NaOH for 30 minutes at room temperature to denature the DNA, followed by addition of Neutralization buffer (Affymetrix, Santa Clara, Calif.). The resulting lysed and neutralized supernatant was then added to QuantiGene™ 2.0 384 well plates coated with capture oligonucleotides and incubated overnight at 55° C. The HBV specific probe set consists of Capture Extender oligonucleotides (CE's) and blocking probes. Following the overnight incubation, the wells were incubated for one hour sequentially with a Pre-Amplifier, Amplifier and Labeled probes conjugated to alkaline phosphatase with a wash step between incubations. After the final wash step, the alkaline phosphatase substrate (Luminol APS5) was added and the resulting luminescence signal was read in an EnVision Multilabel Plate Reader (PerkinElmer, Santa Clara, Calif.). The EC50 values were calculated from the fit of the dose-response curves to a four-parameter equation. All EC50 values represent geometric mean values of a minimum of four determinations.

[2] = Kinetic Solubility; assay type: physicochemical; conditions: 0.2 to 100 μM, BD Gentest Solubility Scanner
Description: The 10 mM DMSO stock solution of the test compound is serially diluted into a 96-well “DMSO stock dilution plate”. Then Pipette 2 μL from the DMSO stock dilution plate into the “Sample plate” and dilute with 198 µL of the assay media to generate the final concentrations of the test compound ranging from 0.2 to 100 μM. The “Sample plate” is run on a BD Gentest Solubility Scanner.

[3] = aqueous buffer, kinetic from dmso stock, pH = 7, read-out: Kinetic Solubility at pH = 7
[4] = simulated gastric fluid, kinetic from dmso stock, pH = 1, read-out: Kinetic Solubility at pH = 1

`Cc1c(C(=O)Nc2ccc(F)cc2)c2n(c1C(=O)C(=O)NC1(c3cn(C)nn3)CC(F)(F)C1)CCC2` [Example 10] showed an EC50 [1] of 33.2 nM, a solubility kinetic ([2]; pH = 1, read-out: Kinetic Solubility at pH = 1) of 1.4 µM (≈ 0.701 µg/mL) and a solubility kinetic ([2]; pH = 7, read-out: Kinetic Solubility at pH = 7) of 52.8 µM (≈ 26.4 µg/mL).
Compound `Cc1c(C(=O)Nc2ccc(F)c(F)c2)c2n(c1C(=O)C(=O)NC1(c3cnn[nH]3)CC(F)(F)C1)[C@@H]1C[C@@H]1C2` [Example 34, (1aR,6aR)-3-(2-((3,3-difluoro-1-(1H-1,2,3-triazol-5-yl)cyclobutyl)amino)-2-oxoacetyl)-N-(3,4-difluorophenyl)-4-methyl-1,1a,6,6a-tetrahydrocyclopropa[a]pyrrolizine-5-carboxamide] has an EC50 ([1]; Hepatitis B virus, 120 h) of 14.4 nM, a solubility kinetic ([2]; assay media at pH 1 (composition not named), simulated gastric fluid, kinetic from dmso stock, pH = 1, read-out: Kinetic Solubility at pH = 1) of 51.7 µM (≈ 26.7 µg/mL) and a solubility kinetic ([2]; assay media at pH 7 (composition not named), aqueous buffer, kinetic from dmso stock, pH = 7, read-out: Kinetic Solubility at pH = 7) of 52.3 µM (≈ 27 µg/mL).
Compound `Cc1c(C(=O)Nc2ccc(F)c(C(F)F)c2)c2n(c1C(=O)C(=O)NC1(C(N)=O)CC(F)(F)C1)CCC2` [Example 32, 5-(2-((1-carbamoyl-3,3-difluorocyclobutyl)amino)-2-oxoacetyl)-N-(3-(difluoromethyl)-4-fluorophenyl)-6-methyl-2-dihydro-1H-pyrrolizine-7-carboxamide] has an EC50 ([1]; Hepatitis B virus, 120 h) of 24.2 nM, a solubility kinetic [2, 3] of 89.5 µM (≈ 45.9 µg/mL) and a solubility kinetic [2, 4] of 93.1 µM (≈ 47.7 µg/mL).
`Cc1c(C(=O)Nc2ccc(F)c(F)c2)c2n(c1C(=O)C(=O)NC1(c3nncs3)CC1)CCC2` [Example 43, 5-(2-((1-(1,3,4-thiadiazol-2-yl)cyclopropyl)amino)-2-oxoacetyl)-N-(3,4-difluorophenyl)-6-methyl-2,3-dihydro-1H-pyrrolizine-7-carboxamide] gave an EC50 ([1]; Hepatitis B virus, 120 h) of 12.8 nM, a solubility kinetic [2, 3] of 72.8 µM (≈ 34.3 µg/mL) and a solubility kinetic [2, 4] of 77.7 µM (≈ 36.6 µg/mL).
Work on `CNC(=O)C1(NC(=O)C(=O)c2c(C)c(C(=O)Nc3ccc(F)c(F)c3)c3n2C[C@H]2C[C@@H]32)CC(F)(F)C1` [Example 26, (1aS,6bR)-4-(2-((3,3-difluoro-1-(methylcarbamoyl)cyclobutyl)amino)-2-oxoacetyl)-N-(3,4-difluorophenyl)-5-methyl-1,1a,2,6b-tetrahydrocyclopropa[a]pyrrolizine-6-carboxamide] yielded an EC50 ([1]; Hepatitis B virus, 120 h) of 20.6 nM, a solubility kinetic [2, 3] greater than 100 µM and a solubility kinetic [2, 4] greater than 100 µM.
Compound `Cc1c(C(=O)Nc2ccc(F)cc2)c2n(c1C(=O)C(=O)NC1(c3cnn[nH]3)CC(F)(F)C1)CCC2` [Example 17, 5-(2-((3,3-difluoro-1-(1H-1,2,3-triazol-4-yl)cyclobutyl)amino)-2-oxoacetyl)-N-(4-fluorophenyl)-6-methyl-2,3-dihydro-H-pyrrolizine-7-carboxamide] has an EC50 ([1]; Hepatitis B virus, 120 h) of 4.1 nM, a solubility kinetic [2, 3] of 77.8 µM (≈ 37.8 µg/mL) and a solubility kinetic [2, 4] of 70.2 µM (≈ 34.1 µg/mL).
Compound `CNC(=O)C1(NC(=O)C(=O)c2c(C)c(C(=O)Nc3ccc(F)c(F)c3)c3n2[C@@H]2C[C@@H]2C3)CC(F)(F)C1` [Example 33] has an EC50 ([1]; Hepatitis B virus, 120 h) of 93.6 nM, a solubility kinetic [2, 3] of 92.3 µM (≈ 46.7 µg/mL) and a solubility kinetic [2, 4] of 92.1 µM (≈ 46.6 µg/mL).
Work on `Cc1c(C(=O)Nc2ccc(F)c(F)c2)c2n(c1C(=O)C(=O)NC1(c3nncs3)CC(F)(F)C1)CCC2` [Example 3, 5-(2-((3,3-difluoro-1-(1,3,4-thiadiazol-2-yl)cyclobutyl)amino)-2-oxoacetyl)-N-(3,4-difluorophenyl)-6-methyl-2,3-dihydro-1H-pyrrolizine-7-carboxamide] yielded an EC50 ([1]; Hepatitis B virus, 120 h) of 2.3 nM, a solubility kinetic [2, 3] of 1.1 µM (≈ 0.574 µg/mL) and a solubility kinetic [2, 4] of 1.5 µM (≈ 0.782 µg/mL).
In the case of `Cc1c(C(=O)Nc2cc(F)c(F)c(F)c2)c2n(c1C(=O)C(=O)NC1(c3nncs3)CC1)CCC2` [Example 29, 5-(2-((1-(1,3,4-thiadiazol-2-yl)cyclopropyl)amino)-2-oxoacetyl)-6-methyl-N-(3,4,5-trifluorophenyl)-2,3-dihydro-1H-pyrrolizine-7-carboxamide], the EC50 ([1]; Hepatitis B virus, 120 h) is reported as 14.3 nM, the solubility kinetic [2, 3] is reported as 4.5 µM (≈ 2.2 µg/mL) and the solubility kinetic [2, 4] is reported as 88.7 µM (≈ 43.4 µg/mL).
For `Cc1c(C(=O)Nc2ccc(F)c(C#N)c2)c2n(c1C(=O)C(=O)NC1(c3cnn[nH]3)CC(F)(F)C1)CCC2` [Example 15, N-(3-cyano-4-fluorophenyl)-5-(2-((3,3-difluoro-1-(1H-1,2,3-triazol-4-yl)cyclobutyl)amino)-2-oxoacetyl)-6-methyl-2,3-dihydro-1H-pyrrolizine-7-carboxamide], the EC50 ([1]; Hepatitis B virus, 120 h) was 5.2 nM, the solubility kinetic [2, 3] was 13.9 µM (≈ 7.11 µg/mL) and the solubility kinetic [2, 4] was 13.5 µM (≈ 6.9 µg/mL).
`Cc1c(C(=O)Nc2ccc(F)c(C(F)F)c2)c2n(c1C(=O)C(=O)NC1(c3c[nH]nn3)CC(F)(F)C1)CCC2` [Example 37, 5-(2-((3,3-Difluoro-1-(1H-1,2,3-triazol-4-yl)cyclobutyl)amino)-2-oxoacetyl)-N-(3-(difluoromethyl)-4-fluorophenyl)-6-methyl-2,3-dihydro-1H-pyrrolizine-7-carboxamide] gave an EC50 ([1]; Hepatitis B virus, 120 h) of 3.6 nM, a solubility kinetic [2, 3] of 5.2 µM (≈ 2.79 µg/mL) and a solubility kinetic [2, 4] of 7.1 µM (≈ 3.81 µg/mL).
